Source: PubChem BioAssay AID1963443 (Molecular Pharmacology Branch, DTP, NCI, 2024)

System: MDA-MB-231 complex spheroids, growth inhibition
Test: Anticancer human tumor MDA-MB-231 cell line growth inhibition [Asc];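 further: spheroids exposed to compounds for 7 days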
Details: for IC50: curve of first compound; for viability, T/C: stronger effect = lower value
How it was run: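 Complex solid-tumor spheroids incorporating human endothelial and mesenchymal stem cells received single agents or combinations over half-log dilution ranges anchored to clinical Cmax.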

[1] = second compound 0.1 µM, first compound 0.00316 µM
[2] = second compound 0.1 µM, first compound 0.01 µM
[3] = second compound 0.1 µM, first compound 0.0316 µM
[4] = second compound 0.1 µM, first compound 0.1 µM
[5] = second compound 0.1 µM, first compound 0.316 µM
[6] = second compound 0.1 µM, first compound 1 µM
[7] = second compound 0.316 µM, first compound 0.00316 µM
[8] = second compound 0.316 µM, first compound 0.01 µM
[9] = second compound 0.316 µM, first compound 0.0316 µM
[10] = second compound 0.316 µM, first compound 0.1 µM
[11] = second compound 0.316 µM, first compound 0.316 µM
[12] = second compound 0.316 µM, first compound 1 µM
[13] = second compound 1 µM, first compound 0.00316 µM
[14] = second compound 1 µM, first compound 0.01 µM
[15] = second compound 1 µM, first compound 0.0316 µM
[16] = second compound 1 µM, first compound 0.1 µM
[17] = second compound 1 µM, first compound 0.316 µM
[18] = second compound 1 µM, first compound 1 µM
[19] = second compound 3.16 µM, first compound 0.00316 µM
[20] = second compound 3.16 µM, first compound 0.01 µM
[21] = second compound 3.16 µM, first compound 0.0316 µM
[22] = second compound 3.16 µM, first compound 0.1 µM
[23] = second compound 3.16 µM, first compound 0.316 µM
[24] = second compound 3.16 µM, first compound 1 µM
[25] = second compound 10 µM, first compound 0.00316 µM
[26] = second compound 10 µM, first compound 0.01 µM
[27] = second compound 10 µM, first compound 0.0316 µM
[28] = second compound 10 µM, first compound 0.1 µM
[29] = second compound 10 µM, first compound 0.316 µM
[30] = second compound 10 µM, first compound 1 µM

SMILES	IC50 (second compound 0.1 µM)	IC50 (second compound 0.316 µM)	IC50 (second compound 1 µM)	IC50 (second compound 3.16 µM)	IC50 (second compound 10 µM)	viability, T/C [1]	viability, T/C [2]	viability, T/C [3]	viability, T/C [4]	viability, T/C [5]	viability, T/C [6]	viability, T/C [7]	viability, T/C [8]	viability, T/C [9]	viability, T/C [10]	viability, T/C [11]	viability, T/C [12]	viability, T/C [13]	viability, T/C [14]	viability, T/C [15]	other results
CCN1CCN(Cc2ccc(Nc3ncc(F)c(-c4cc(F)c5nc(C)n(C(C)C)c5c4)n3)nc2)CC1 + Cc1c(S(C)(=O)=O)c(-c2cc(F)cc(N3CCN(c4ccc(NS(=O)(=O)c5ccc(NC(CCN6CCC(C(=O)OCCCP(=O)(O)O)CC6)CSc6ccccc6)c(S(=O)(=O)C(F)(F)F)c5)cc4)CC3)c2)c(-c2ccc(Cl)cc2)n1C(C)C	648 nM	> 1000 nM	306 nM	258 nM	308 nM	97.4%	97.9%	84%	65.6%	47.9%	51.5%	103%	95.4%	84.9%	64.8%	49.7%	53.1%	98.1%	93.2%	87.7%	viability, T/C [16]: 67.6%; viability, T/C [17]: 49.5%; viability, T/C [18]: 42.1%; viability, T/C [19]: 95.9%; viability, T/C [20]: 91.9%; viability, T/C [21]: 83.8%; viability, T/C [22]: 63.8%; viability, T/C [23]: 47.7%; viability, T/C [24]: 36.5%; viability, T/C [25]: 104%; viability, T/C [26]: 97.7%; viability, T/C [27]: 93.6%; viability, T/C [28]: 76.9%; viability, T/C [29]: 48.7%; viability, T/C [30]: 32.2%
COc1c(OCCCN2CCOCC2)ccc2c3n(c(=NC(=O)c4cnc(N)nc4)nc12)CCN3 + Cc1c(S(C)(=O)=O)c(-c2cc(F)cc(N3CCN(c4ccc(NS(=O)(=O)c5ccc(NC(CCN6CCC(C(=O)OCCCP(=O)(O)O)CC6)CSc6ccccc6)c(S(=O)(=O)C(F)(F)F)c5)cc4)CC3)c2)c(-c2ccc(Cl)cc2)n1C(C)C	95.4 nM	72.9 nM	64.2 nM	44.5 nM	49 nM	85.8%	85.2%	67.7%	49.3%	31.3%	20.1%	94.6%	81.1%	63%	47%	24.3%	12.1%	94.8%	85.1%	66%	viability, T/C [16]: 40.8%; viability, T/C [17]: 17.6%; viability, T/C [18]: 8.74%; viability, T/C [19]: 88.1%; viability, T/C [20]: 84.2%; viability, T/C [21]: 54.6%; viability, T/C [22]: 32.8%; viability, T/C [23]: 12.1%; viability, T/C [24]: 5.37%; viability, T/C [25]: 90.3%; viability, T/C [26]: 85.1%; viability, T/C [27]: 59.8%; viability, T/C [28]: 32.5%; viability, T/C [29]: 10.2%; viability, T/C [30]: 3.64%
